# “And” between values parts separate entries of the source, which are not always exact repeats. Equal entries are not always repeated.
# Biological target: 5-hydroxytryptamine receptor 4 (Homo sapiens, UniProt Q13639)
# Sequence (Q13639 whole entry): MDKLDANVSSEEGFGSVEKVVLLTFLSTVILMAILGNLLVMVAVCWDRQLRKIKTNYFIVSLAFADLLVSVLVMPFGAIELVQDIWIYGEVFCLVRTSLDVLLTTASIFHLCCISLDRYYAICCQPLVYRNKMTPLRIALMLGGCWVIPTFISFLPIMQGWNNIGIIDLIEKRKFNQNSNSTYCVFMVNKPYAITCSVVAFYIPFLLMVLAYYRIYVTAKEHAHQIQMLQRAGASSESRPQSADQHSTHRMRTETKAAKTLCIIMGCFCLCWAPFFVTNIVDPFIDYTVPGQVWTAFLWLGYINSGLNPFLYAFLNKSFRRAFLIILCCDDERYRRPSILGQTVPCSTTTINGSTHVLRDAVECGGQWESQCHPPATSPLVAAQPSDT
row,SMILES,Ki
1,CCn1c(=O)n(C(=O)NC2CC3CCC(C2)N3C)c2ccccc21 (stereo not drawn) [BIMU 1],373 nM and 123 nM and 66 nM and 38.8 nM
2,Cn1cc(C(=O)OCC2CCN(CCNS(C)(=O)=O)CC2)c2ccccc21 [GR 113808],0.07 nM
3,"COc1cc(N)c(Cl)cc1C(=O)NC1CN2CCC1CC2 (stereo not drawn) [ZACOPRIDE,R]",> 10000 nM
